Data taken from PubChem BioAssay (NCI).
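Protocol summary: plate cells (96-well), add compound at 5 concentrations, incubate 48 h, interpolate endpoints linearly. Definition used: TGI = concentration required for complete inhibition of growth.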 Activity calls are given as the source filed them. No stated cut-off is given here; in the data, active means GI50 below about 0.43 µM; inactive means the rest.

Experiments:
Assay in all cases: inhibition of tumour cell growth, NCI panel, 48 h
[1] = tested on: NCI-H23 lung
[2] = tested on: SF-539 CNS
[3] = tested on: SNB-75 CNS
[4] = tested on: OVCAR-4 ovarian
[5] = tested on: RXF-631 renal
[6] = tested on: MALME-3M melanoma
[7] = tested on: RXF 393 renal
[8] = tested on: KM20L2 colon
[9] = tested on: IGROV1 ovarian
[10] = tested on: SK-MEL-5 melanoma
[11] = tested on: SNB-19 CNS
[12] = tested on: LOX IMVI melanoma
[13] = tested on: NCI-H460 lung
[14] = tested on: ACHN renal
[15] = tested on: SK-MEL-2 melanoma
[16] = tested on: UACC-62 melanoma
[17] = tested on: K-562 leukemia
[18] = tested on: M14 melanoma
[19] = tested on: U251 CNS
[20] = tested on: EKVX NSCLC
[21] = tested on: SNB-78 CNS
[22] = tested on: 786-0 renal
[23] = tested on: RPMI-8226 leukemia
[24] = tested on: SR leukemia
[25] = tested on: OVCAR-5 ovarian
[26] = tested on: HCT-116 colon
[27] = tested on: LXFL 529 NSCLC
[28] = tested on: M19-MEL melanoma
[29] = tested on: OVCAR-3 ovarian
[30] = tested on: NCI-H522 lung
[31] = tested on: SW-620 colon
[32] = tested on: COLO 205 colon
[33] = tested on: OVCAR-8 ovarian
[34] = tested on: HL-60(TB) leukemia
[35] = tested on: HT29 colon
[36] = tested on: SN12C renal
[37] = tested on: CAKI-1 renal
[38] = tested on: DLD-1 colon
[39] = tested on: NCI-H226 lung
[40] = tested on: UO-31 renal
[41] = tested on: HCC-2998 colon
[42] = tested on: SK-MEL-28 melanoma
[43] = tested on: SF-295 CNS
[44] = tested on: KM12 colon
[45] = tested on: UACC-257 melanoma
[46] = tested on: CCRF-CEM leukemia
[47] = tested on: HCT-15 colon
[48] = tested on: XF 498 CNS
[49] = tested on: MOLT-4 leukemia
[50] = tested on: SF-268 CNS
[51] = tested on: A549 NSCLC
[52] = tested on: SK-OV-3 ovarian
[53] = tested on: DMS 273 small cell lung
[54] = tested on: HOP-92 NSCLC
[55] = tested on: TK-10 renal
[56] = tested on: HOP-62 NSCLC
[57] = tested on: DMS 114 small cell lung

Question: How did the TGI [1] turn out when C/C(O)=C/c1nc2ccccc2[nH]1 was run?
Answer: > 100 µM

Question: What about the TGI [2] of the same compound?
Answer: > 100 µM

Question: What about the TGI [3] of the same compound?
Answer: 78.8 µM

Question: And the TGI [4]?
Answer: > 100 µM

Question: And the TGI [5]?
Answer: > 100 µM

Question: What about the TGI [6] of the same compound?
Answer: > 100 µM

Question: What about the TGI [7] of the same compound?
Answer: > 100 µM

Question: What about the TGI [8] of the same compound?
Answer: > 100 µM

Question: What about the TGI [9] of the same compound?
Answer: > 100 µM

Question: What about the TGI [10] of the same compound?
Answer: > 100 µM

Question: What about the TGI [11] of the same compound?
Answer: > 100 µM

Question: And the TGI [12]?
Answer: > 100 µM

Question: What about the TGI [13] of the same compound?
Answer: > 100 µM

Question: And the TGI [14]?
Answer: > 100 µM

Question: And the TGI [15]?
Answer: > 100 µM

Question: What about the TGI [16] of the same compound?
Answer: > 100 µM

Question: And the TGI [17]?
Answer: > 100 µM

Question: And the TGI [18]?
Answer: > 100 µM

Question: And the TGI [19]?
Answer: > 100 µM

Question: What about the TGI [20] of the same compound?
Answer: > 100 µM

Question: And the TGI [21]?
Answer: > 100 µM

Question: What about the TGI [22] of the same compound?
Answer: > 100 µM

Question: And the TGI [23]?
Answer: > 100 µM

Question: What about the TGI [24] of the same compound?
Answer: > 100 µM

Question: And the TGI [25]?
Answer: > 100 µM

Question: What about the TGI [26] of the same compound?
Answer: > 100 µM

Question: What about the TGI [27] of the same compound?
Answer: > 100 µM

Question: And the TGI [28]?
Answer: > 100 µM

Question: What about the TGI [29] of the same compound?
Answer: > 100 µM

Question: And the TGI [30]?
Answer: > 100 µM

Question: What about the TGI [31] of the same compound?
Answer: > 100 µM

Question: And the TGI [32]?
Answer: > 100 µM

Question: What about the TGI [33] of the same compound?
Answer: > 100 µM

Question: What about the TGI [34] of the same compound?
Answer: > 100 µM

Question: And the TGI [35]?
Answer: > 100 µM

Question: And the TGI [36]?
Answer: > 100 µM

Question: And the TGI [37]?
Answer: > 100 µM

Question: And the TGI [38]?
Answer: > 100 µM

Question: What about the TGI [39] of the same compound?
Answer: > 100 µM

Question: And the TGI [40]?
Answer: > 100 µM

Question: And the TGI [41]?
Answer: > 100 µM

Question: And the TGI [42]?
Answer: > 100 µM

Question: What about the TGI [43] of the same compound?
Answer: > 100 µM

Question: What about the TGI [44] of the same compound?
Answer: > 100 µM

Question: And the TGI [45]?
Answer: > 100 µM

Question: What about the TGI [46] of the same compound?
Answer: > 100 µM

Question: What about the TGI [47] of the same compound?
Answer: > 100 µM

Question: What about the TGI [48] of the same compound?
Answer: > 100 µM

Question: What about the TGI [49] of the same compound?
Answer: > 100 µM

Question: And the TGI [50]?
Answer: > 100 µM

Question: What about the TGI [51] of the same compound?
Answer: > 100 µM

Question: Which outcome [52] does the source give for C[C@@]1(CO)O[C@H]1CCC#C[Si](C)(C)C here?
Answer: inactive

Question: And the outcome [1]?
Answer: inactive

Question: What about the outcome [2] of the same compound?
Answer: inactive

Question: And the outcome [53]?
Answer: inactive

Question: And the outcome [3]?
Answer: inactive

Question: And the outcome [4]?
Answer: inactive

Question: What about the outcome [54] of the same compound?
Answer: inactive

Question: And the outcome [5]?
Answer: inactive

Question: And the outcome [6]?
Answer: inactive

Question: And the outcome [7]?
Answer: inactive

Question: And the outcome [8]?
Answer: inactive

Question: And the outcome [9]?
Answer: inactive

Question: What about the outcome [11] of the same compound?
Answer: inactive

Question: And the outcome [12]?
Answer: inactive

Question: And the outcome [13]?
Answer: inactive

Question: And the outcome [14]?
Answer: inactive

Question: What about the outcome [15] of the same compound?
Answer: inactive

Question: What about the outcome [16] of the same compound?
Answer: inactive

Question: And the outcome [17]?
Answer: inactive

Question: What about the outcome [18] of the same compound?
Answer: inactive

Question: What about the outcome [19] of the same compound?
Answer: inactive

Question: What about the outcome [55] of the same compound?
Answer: inactive

Question: What about the outcome [20] of the same compound?
Answer: inactive

Question: And the outcome [21]?
Answer: inactive

Question: What about the outcome [22] of the same compound?
Answer: inactive

Question: What about the outcome [23] of the same compound?
Answer: inactive

Question: What about the outcome [24] of the same compound?
Answer: inactive

Question: What about the outcome [25] of the same compound?
Answer: inactive

Question: And the outcome [27]?
Answer: inactive

Question: And the outcome [29]?
Answer: inactive

Question: And the outcome [30]?
Answer: inactive

Question: What about the outcome [31] of the same compound?
Answer: inactive

Question: And the outcome [32]?
Answer: inactive

Question: And the outcome [33]?
Answer: inactive

Question: And the outcome [56]?
Answer: inactive

Question: What about the outcome [34] of the same compound?
Answer: inactive

Question: What about the outcome [35] of the same compound?
Answer: inactive

Question: And the outcome [36]?
Answer: inactive

Question: And the outcome [37]?
Answer: inactive

Question: What about the outcome [38] of the same compound?
Answer: inactive

Question: What about the outcome [39] of the same compound?
Answer: inactive

Question: What about the outcome [40] of the same compound?
Answer: inactive

Question: What about the outcome [43] of the same compound?
Answer: inactive

Question: What about the outcome [44] of the same compound?
Answer: inactive

Question: What about the outcome [45] of the same compound?
Answer: inactive

Question: And the outcome [46]?
Answer: inactive

Question: What about the outcome [47] of the same compound?
Answer: inactive

Question: What about the outcome [48] of the same compound?
Answer: inactive

Question: And the outcome [49]?
Answer: inactive

Question: And the outcome [50]?
Answer: inactive

Question: And the outcome [51]?
Answer: inactive

Question: Which TGI [52] does the source give for CCC12CCCN(Cc3ccccc3)C1c1c(n(C)c3ccccc13)[C@H](C(=O)OC)C2 (some centres undefined) here?
Answer: > 239 µM

Question: What about the TGI [1] of the same compound?
Answer: > 239 µM

Question: And the TGI [2]?
Answer: > 239 µM

Question: And the TGI [57]?
Answer: > 239 µM

Question: And the TGI [53]?
Answer: > 239 µM

Question: What about the TGI [54] of the same compound?
Answer: 238 µM

Question: And the TGI [5]?
Answer: > 239 µM

Question: What about the TGI [6] of the same compound?
Answer: > 239 µM

Question: And the TGI [7]?
Answer: > 239 µM

Question: What about the TGI [8] of the same compound?
Answer: > 239 µM

Question: And the TGI [9]?
Answer: > 239 µM

Question: What about the TGI [10] of the same compound?
Answer: > 239 µM

Question: And the TGI [11]?
Answer: > 239 µM

Question: What about the TGI [12] of the same compound?
Answer: > 239 µM

Question: And the TGI [13]?
Answer: > 239 µM

Question: What about the TGI [14] of the same compound?
Answer: > 239 µM

Question: What about the TGI [15] of the same compound?
Answer: > 239 µM

Question: And the TGI [16]?
Answer: > 239 µM

Question: And the TGI [17]?
Answer: > 239 µM

Question: And the TGI [19]?
Answer: > 239 µM

Question: And the TGI [55]?
Answer: > 239 µM

Question: And the TGI [20]?
Answer: > 239 µM

Question: And the TGI [22]?
Answer: > 239 µM

Question: And the TGI [23]?
Answer: > 239 µM

Question: What about the TGI [24] of the same compound?
Answer: > 239 µM

Question: What about the TGI [25] of the same compound?
Answer: > 239 µM

Question: What about the TGI [26] of the same compound?
Answer: > 239 µM

Question: What about the TGI [27] of the same compound?
Answer: > 239 µM

Question: And the TGI [28]?
Answer: > 239 µM

Question: What about the TGI [29] of the same compound?
Answer: > 239 µM

Question: And the TGI [30]?
Answer: > 239 µM

Question: What about the TGI [31] of the same compound?
Answer: > 239 µM

Question: And the TGI [32]?
Answer: > 239 µM

Question: And the TGI [33]?
Answer: > 239 µM

Question: What about the TGI [56] of the same compound?
Answer: > 239 µM

Question: What about the TGI [34] of the same compound?
Answer: > 239 µM

Question: What about the TGI [35] of the same compound?
Answer: 142 µM

Question: What about the TGI [36] of the same compound?
Answer: > 239 µM

Question: And the TGI [37]?
Answer: > 239 µM

Question: What about the TGI [38] of the same compound?
Answer: > 239 µM

Question: What about the TGI [39] of the same compound?
Answer: > 239 µM

Question: And the TGI [41]?
Answer: > 239 µM

Question: And the TGI [42]?
Answer: > 239 µM

Question: What about the TGI [43] of the same compound?
Answer: > 239 µM

Question: And the TGI [44]?
Answer: > 239 µM

Question: And the TGI [45]?
Answer: > 239 µM

Question: And the TGI [46]?
Answer: > 239 µM

Question: And the TGI [47]?
Answer: > 239 µM

Question: And the TGI [48]?
Answer: > 239 µM

Question: What about the TGI [49] of the same compound?
Answer: > 239 µM

Question: What about the TGI [50] of the same compound?
Answer: > 239 µM

Question: And the TGI [51]?
Answer: > 239 µM
